A word on the half-life: it is the time needed for the level to fall by half in the phase considered. The low end stands for rapid decline, the high end for slow decline.

Data set [1] is described as follows: Low dose pharmacokinetics. Type of data set: in vivo. The note with it: mouse, plasma, iv, 1 mg/kg; C57BI/6 mice, intravenously, 1 mg per kg bodyweight. The procedure:
In order to determine the stability of test compounds in plasma, low-dose pharmacokinetic experiments were carried out in C57BI/6 mice. Test compounds were dissolved at 0.1 mg/mL in an appropriate vehicle and dosed intravenously at 1 mg per kg bodyweight in three animals per compound. At various (between 5 and 9) timepoints after injection, up to 24 hours, blood samples were drawn, plasma isolated and test compound concentrations were determined using LC-MS/MS. t½ values were subsequently calculated using Phoenix WinNonlin 6.3 software and averaged over the three mice per test compound.

Data set [2] deals with Raji human Burkitt's lymphoma cells. Briefly: In vivo Raji xenograft mouse model. More on the design: species or system NSG mice. Particulars: (1) 100 mg/kg orally once daily in combination with Rituximab 10 mg/kg intravenously Q3D, versus Rituximab alone. How it is done: Anti tumor effects were determined in a model for Burkitt's lymphoma. NSG mice were intravenuously injected with 1 × 10^6 Raji human Burkitt's lymphoma cells. Four days after tumor cell injection, animals were treated with compound (1) as a single agent and in combination with Rituximab (anti-CD20 antibody). Compound (1) was administered at 100 mg/kg orally, once daily. Rituximab was dosed at 10 mg/kg intravenously every third day (Q3D). Tumor progression was evaluated by monitoring animal health and body weight measurement. […] Animals treated with compound in combination with Rituximab, on average, lived 5.5 days longer than animals treated with Rituximab alone.

Data set [3] relates to Pan02 cells. Briefly: In vivo Pan02 syngeneic mouse model. Also noted: species or system C57BL/6 female mice. The procedure:
Anti tumor effects were evaluated in the Pan02, pancreatic adenocarcinoma syngeneic mouse tumor model. For this study 3 × 10^6 Pan02 cells were injected in the right front flank of C57BL/6 female mice. Tumor size was measured and when tumors reached an average size of 80-120 mm^3, treatment was started. Treatment consisted of compound alone, or in combination with the anti PD-L1 antibody (B7-H1). Compound (1) was administered orally at 100 mg/kg once daily and anti-PD-L1 antibody was administered intraperitoneally at 10 mg/kg twice weekly. Tumor progression was monitored by tumor volume measurement using a caliper.

As for `O=C1OC[C@H](c2ccc(-c3cnn(C(F)(F)F)c3)cc2F)N1c1ccc2[nH]cnc2c1` [Compound (1)], the half-life in data set [1] lay in the range of 3.99 to 4.58 h. The “lived longer than animals treated with Rituximab alone (on average)” value in data set [2] stood at 5.5 days. In data set [3] ((1) orally 100 mg/kg once daily plus anti-PD-L1 antibody intraperitoneally 10 mg/kg twice weekly), the “anti tumor effect (tumor volume), combined with anti-PD-L1 antibody” value is listed as “tumor regression”. The “anti tumor effect (tumor volume), compound alone” value in data set [3] ((1) orally 100 mg/kg once daily, by itself) is reported as “tumor growth inhibition”.

Values taken from patent EP4455142A1, “NOVEL INHIBITOR OF QPCTL AND/OR QC” (Scenic Immunology B.V., priority 2023, dated 2024).
